Laboratory results from patent US20250049751A1, “L-THEANINE AND TETRAHYDROCANNABINOL FORMULATION” (priority 2018, published 2025).
“Also recorded” adds a separate entry of the source.

Assays:
[1] = test system: glycogen-synthase-kinase-3A; assay: Western Blot of GSK-3α protein expression; type: in vivo, rat; settings: rats, chronic THC exposure, L-Theanine 10 mg/kg
Procedure: (§1) FIG. 7. […] These molecular signaling effects are prevented by co-administration with L-Theanine (10 mg/kg), as measured in a Western Blot procedure.
(§2) Four groups of ten rats were studied. The first group of rats was given twice daily intra-peritoneal doses of THC. The dosage regime was as follows
(§3) Immediately preceding each dose of THC, each rat was dosed with 10 mg/kg L-Theanine, administered intra-peritoneally.
(§4) The second group of rats was given the same doses of THC and no L-Theanine.
(§5) The third group of rats was given twice daily doses of L-Theanine but no THC.
(§6) The fourth group of rats was given neither THC nor L-Theanine.
(§7) All groups of rats were fed, watered and otherwise housed identically. At the end of the 10 day period, the rats were subject to a serious of tests.

[2] = test system: single dopamine neurons in the ventral tegmental area; assay: In vivo single-unit electrophysiology recordings in the VTA; parameters: species or system rat; settings: rats; chronic THC exposure, L-Theanine 10 mg/kg; FIG. 4
Procedure: as §2, §3, §4, §5, §6, §7
(§8) Extracellular single-unit electrophysiological recordings were performed in vivo in adult (>PND 75) pretreated rats during adolescence. The recordings were taken from either putative glutamatergic (GLUT) PFC neurons or dopaminergic (DA) VTA neurons. Rats were anesthetized with urethane (1.4 g/kg, i.p., Sigma-Aldrich) and placed in a stereotaxic frame with body temperature maintained at 37° C. […] Extracellular signals were amplified (×5000) using a MultiClamp 700B amplifier (Molecular Devices), digitized at 25 kHz and recorded on the computer using a Digidata 1440 A and pClamp software (Molecular Devices). […]

rats [3] = assay: Novel object memory test (Novel Object Recognition); type: in vivo, rat; settings: 60 min delay, chronic THC 10 days twice daily i.p., L-Theanine 10 mg/kg, FIG. 3
Procedure: as §2, §3, §4, §5, §6, §7
The test sessions consisted of two 3-min trials. During the first trial (T1 acquisition trial), each rat was placed in the center of an arena containing two identical objects placed in the far corners 15 cm from the side wall. […] Times spent in exploration were videotaped with a video-tracking system (ANY-maze; Stoelting) and analyzed by an experimenter blind to the treatment conditions. Exploration times were recorded and used to calculate object recognition index [time spent with novel object/total time exploring both objects]

rats [4] = assay: Sucrose preference testing for depression/anhedonia symptoms; type: in vivo, rat; settings: 2% sucrose vs. plain water, chronic THC 10 days twice daily i.p., L-Theanine 10 mg/kg, FIG. 2
Procedure: as §2, §3, §4, §5, §6, §7
Rats were water-restricted for 12 hrs prior to being given a 2-bottle choice test between a solution containing 2% sucrose vs. plain water. The amounts consumed from each bottle were measured over 24 hr for 4 days. A sucrose preference index was calculated for each rat and averaged across groups by taking the percentage of the volume of sucrose intake over the total volume of fluid intake over […].

[5] = test system: Akt (protein kinase B) threanine308; assay: Protein expression of Akt308 in prefrontal cortex; type: in vivo; settings: prefrontal cortex of rat brain; chronic THC, L-Theanine 10 mg/kg; FIG. 8
Procedure: FIG. 8. […] This effect is prevented by L-Theanine (10 mg/kg) co-administration.
as §2, §3, §4, §5, §6, §7

[6] = test system: single neurons of the prefrontal cortex (PFC); assay: In vivo single-unit electrophysiology recordings in the PFC (burst testing); parameters: species or system rat; settings: rats; chronic THC exposure, L-Theanine 10 mg/kg; FIG. 5
Procedure: as §2, §3, §4, §5, §6, §7
as §8, with “neurons.” for “neurons. Rats were anesthetized with urethane (1.4 g/kg, i.p., Sigma-Aldrich) and placed in a stereotaxic frame with body temperature maintained at 37° C.”
Putative mPFC pyramidal cells were identified based on established criteria85: (1) firing frequency <10 Hz, (2) waveform shape, and (3) action potential duration >2.5 ms. […] After an individual putative pyramidal neuron was isolated, its spontaneous activity was recorded for 5 min. […]

[7] = test system: glycogen-synthase-kinase-3B; assay: Western Blot of GSK-3β protein expression; type: in vivo, rat; settings: rats, chronic THC exposure, L-Theanine 10 mg/kg
Procedure: as §1, §2, §3, §4, §5, §6, §7

[8] = test system: gamma-band activity in the rat prefrontal cortex; assay: Local field potential recordings in prefrontal cortex (normalized power testing); type: in vivo; settings: chronic THC exposure, L-Theanine 10 mg/kg, 0-100 Hz range
Procedure: as §2, §3, §4, §5, §6, §7, §8

Akt at serine 473 = assay: Protein expression of Akt at serine 473 in prefrontal cortex; type: in vivo; settings: prefrontal cortex of rat brain; chronic THC, L-Theanine 10 mg/kg; FIG. 8
rats [9] = assay: Paired-pulse (prepulse) inhibition test for cognitive filtering deficits; type: in vivo, rat; settings: L-Theanine 10 mg/kg; for prepulse inhibition / sensory filtering: both 30 and 100 msec between pre-pulse and test pulse, 10 days twice daily i.p. THC 2.5-10 mg/kg, relative to vehicle control rats, FIG. 1
Procedure: as §2, §3, §4, §5, §6, §7
Rats were acclimatized to the startle chambers (Med Associates) for 5 min over 3 days. On the last day of acclimation, rats were tested in an input/output (I/O) function consisting of 12 increasing startle pulses (from 65 to 120 dB, 5 dB increments) to determine the appropriate gain setting for each individual rat. The testing procedure consisted of the following phases: the acclimation phase, a habituation phase (Block 1), and PPI measurement (Block 2). During acclimation, rats were exposed to the chambers and white background noise (68 dB) for 5 min. During Block 1, 10 pulse alone trials (110 dB white noise, 20 ms duration) were delivered at 15-20 s inter-trial intervals. Block 2 consisted of […] presented 10 times in a pseudo-randomized order at 15-20 s intervals: 10 pulse-alone trials, and 10 of each of the three different prepulse-pulse trial types (72, 76, 80) with interstimulus intervals of 30 and 100 ms. Pulse-alone trials consisted of a startle stimulus-only presentation, whereas prepulse-pulse trials consisted of the presentation of a weaker non-startling prepulse (white noise, 20 ms duration) before the startling stimulus. PPI was calculated for each animal and each trial condition as PPI (%)=(1-average startle amplitude to pulse with prepulse/average startle amplitude to pulse only)×100.

| SMILES | protein expression levels of GSK-3α ([1]; FIG. 7) | protein expression levels of GSK-3α ([1]; FIG. 7, listed as THC-alone) | activity rates of single dopamine neurons in the ventral tegmental area [2] | object recognition (object memory) (rats [3]) | sucrose preference (anhedonic, depression-like effects) (rats [4]) | protein expression levels of Akt308 [5] | bursting pattern activity of single neurons of the prefrontal cortex [6] | protein expression levels of GSK-3β ([7]; FIG. 7) | protein expression levels of GSK-3β ([7]; FIG. 7, listed as THC-alone) | gamma-band activity (local field potentials, normalized power) ([8]; FIG. 6) | gamma-band activity (local field potentials, normalized power) ([8]; FIG. 6, listed as THC only) | effect on Akt at serine 473 (Akt at serine 473) | sensorimotor filtering (paired-pulse-inhibition) (rats [9]; 30 msec stimulus intervals, 72 and 84 decibel stimulus intensities, FIG. 1A) | sensorimotor filtering (paired-pulse-inhibition) (rats [9]; 100 msec stimulus intervals, 72, 76 and 80 decibel stimulus intensities, FIG. 1B) | prepulse inhibition / sensory filtering (rats [9]) |
| --- | --- | --- | --- | --- | --- | --- | --- | --- | --- | --- | --- | --- | --- | --- | --- |
| CCCCCc1cc(O)c2c(c1)OC(C)(C)[C@@H]1CCC(C)=C[C@@H]21 [THC, Δ-9-tetrahydrocannabinol] | significant loss in the protein expression levels | significant decrease | hyperactive activity rates | significant object memory impairment; also recorded: strong reductions in object recognition | anhedonic (depression-like) effects; also recorded: strong sucrose preference reduction | significant downregulation in protein expression levels of Akt308 | hyperactive ‘bursting’ pattern activity state; also recorded: neuronal hyperactivity | significant loss in the protein expression levels | significant decrease | significant decrease in gamma-band activity states | generally decreased activity | no effect | disruption of sensorimotor filtering | disruption of sensorimotor filtering | strong deficits in the prepulse inhibition |
| CCNC(=O)CC[C@H](N)C(=O)O [L-Theanine] |  |  |  | no apparent effects on object recognition | no apparent effects on sucrose preference |  |  |  |  |  |  |  |  |  | no apparent effects on sensory filtering |
